Experimental data: US8268885B2, “Entry inhibitors of the HIV virus” (priority 2003, dated 2012)

How the values were obtained:
Format in all cases: cell-based
[1] = test system: HIV; assay: anti-viral replication assay using MT4-LTR-EGFP cells; conditions: Human immunodeficiency virus 1, read-out: antiviral EC50
Procedure: (§1) The compounds were tested in the anti-viral replication assay using the MT4-LTR-EGFP cells and in the ERA assay. Toxicity was measured using MT4-CMV-EGFP cells.

[2] = toxicity assay using MT4-CMV-EGFP cells (reduced expression of GFP reporter); conditions: human
Procedure: A toxicity assay wherein a reduced expression of the GFP reporter protein (Mt4-CMV-EGFP cells) serves as a marker for cellular toxicity of a test compound can be used to measure the toxicity of the present compounds.
as §1

[3] = test system: cell-cell fusion between cell line persistently expressing HIV and a cell line expressing CD4 and CXCR4; assay: entry reporter assay (ERA): inhibition of cell-cell fusion, FACS read-out; conditions: for EC50: Human immunodeficiency virus 1, read-out: ERA assay EC50; for ERA assay % inh: cell-cell fusion, concentration not given
Procedure: as §1

SMILES	EC50 [1]	CC50 [2]	EC50 [3]	ERA assay % inh [3]
CN1CCN(CC(=O)Nc2ccc(Oc3ccc(NC(=O)CN4CCN(C)CC4)cc3)cc2)CC1 [Compound 16]	55 µM	> 100 µM	> 200 µM	42%
O=C(COc1ccccc1)Nc1ccc(Oc2ccc([N+](=O)[O-])cc2)cc1 [Compound 24]	19.5 µM	> 100 µM	78.4 µM	68%
COc1cccc(C(=O)Nc2ccc(Oc3ccc(NC(=O)COc4ccccc4)cc3)cc2)c1 [Compound 30]	0.37 µM	3.85 µM		
O=C(COc1ccccc1)Nc1ccc(Oc2ccc(NC(=O)Cc3ccccc3)cc2)cc1 [Compound 33]	5.01 µM	30.2 µM	196 µM	52%
CC(=O)OCC(=O)Nc1ccc(Oc2ccc(NC(=O)COc3ccccc3)cc2)cc1 [Compound 35]	3.28 µM	23.6 µM	150 µM	55%
COc1ccc(S(=O)(=O)Nc2ccc(Oc3ccc(NC(=O)c4cccc(OC)c4)cc3)cc2)cc1 [Compound 36]	1.05 µM	5.87 µM	> 200 µM	9%
O=C(COc1ccccc1)NCc1cccc(Oc2ccc(NC(=O)COc3ccccc3)cc2)c1 [Compound 42]	3.77 µM	46.5 µM	> 200 µM	37%
O=C(Nc1ccc(Oc2cccc3c2N(C(=O)c2ccco2)CCC3)cc1)c1ccco1 [Compound 23, Furan-2-carboxylic acid {4-[1-(furan-2-carbonyl)-1,2,3,4-tetrahydro-quinolin-8-yloxy]-phenyl}-amide]	11.2 µM	34.2 µM	123 µM	92%
CCCCc1ccc(C(=O)Nc2ccc(Oc3cccc4c3N(C(=O)c3ccc(CCCC)cc3)CCC4)cc2)cc1 [Compound 21]	> 34 µM	> 100 µM	> 200 µM	9%
O=C(COc1ccccc1)Nc1ccc(Oc2ccc(NC(=O)c3ccc4c(c3)OCO4)cc2)cc1 [Compound 32]	4.17 µM	19.9 µM	> 200 µM	29%
O=C(COCc1ccccc1)NCc1cccc(Oc2ccc(NC(=O)COCc3ccccc3)cc2)c1 [Compound 43]	11.8 µM	> 32 µM	83.6 µM	54%
O=C(O)c1ccc(S(=O)(=O)Nc2ccc(Oc3cccc4cnccc34)cc2)cc1 [Compound 6]	18.6 µM	> 100 µM	182 µM	52%
COc1cccc(C(=O)Nc2ccc(Oc3ccc(NC(=O)c4cccc(OC)c4)cc3)cc2)c1 [Compound 11]	> 32 µM	> 32 µM	68.9 µM	64%
COc1ccc(S(=O)(=O)Nc2ccc(Oc3ccc(NC(=O)c4ccco4)cc3)cc2)cc1 [Compound 40]	0.15 µM	22.4 µM	40.9 µM	79%
CCCCc1ccc(C(=O)NCc2cccc(Oc3ccc(NC(=O)c4ccc(CCCC)cc4)cc3)c2)cc1 [Compound 44]	2 µM	> 32 µM	> 200 µM	22%
COc1ccc(S(=O)(=O)Nc2ccc(Oc3ccc([N+](=O)[O-])cc3)cc2)cc1 [Compound 29]	1.18 µM	61.6 µM	177 µM	59%
O=C(Cc1ccccc1)Nc1ccc(Oc2ccc(NC(=O)Cc3ccccc3)cc2)cc1 [Compound 10]	> 32 µM	> 32 µM	> 100 µM	48%
COc1ccc(S(=O)(=O)Nc2ccc(Oc3ccc(NC(=O)c4cccc([N+](=O)[O-])c4)cc3)cc2)cc1 [Compound 37]	3.92 µM	> 32 µM		
O=C(COc1ccccc1)Nc1ccc(Oc2ccc(NC(=O)c3ccco3)cc2)cc1 [Compound 34]	1.24 µM	83.2 µM	> 200 µM	41%
O=C(COc1ccccc1)Nc1ccc(Oc2ccc(NC(=O)c3cccc([N+](=O)[O-])c3)cc2)cc1 [Compound 31]	0.43 µM	3.41 µM	> 100 µM	13%
O=C(CNCCN1CCCC1)Nc1ccc(Oc2cccc3c2N(C(=O)CNCCN2CCCC2)CCC3)cc1 [Compound 7]	57.7 µM	> 100 µM	> 200 µM	29%
O=C(Nc1ccc(Oc2ccc(NC(=O)c3cccc([N+](=O)[O-])c3)cc2)cc1)c1cccc([N+](=O)[O-])c1 [Compound 12]	41.3 µM	54.2 µM	> 200 µM	17%
O=C(Nc1ccc(Oc2cccc3cnccc23)cc1)c1ccc([N+](=O)[O-])cc1 [Compound 4]	5.34 µM	> 100 µM	> 200 µM	30%
N#Cc1ccc(C(=O)Nc2ccc(Oc3cccc4cnccc34)cc2)cc1 [Compound 5]	3.29 µM	> 100 µM		
O=C(COc1ccccc1)Nc1ccc(Oc2cccc3c2N(C(=O)COc2ccccc2)CCC3)cc1 [Compound 20]	3.25 µM	> 32 µM	> 100 µM	39%
COc1ccc(S(=O)(=O)Nc2ccc(Oc3ccc(NC(=O)COC(C)=O)cc3)cc2)cc1 [Compound 1, acetic acid {4-[4-(4-methoxy-benzenesulfonylamino)-phenoxy]-phenylcarbamoyl}-methyl ester]	1.69 µM	> 27.7 µM	92 µM	89%
O=C(CN[C@@H](Cc1ccccc1)C(=O)O)Nc1ccc(Oc2cccc(C(=O)O)c2)cc1C(F)(F)F [Compound 8]	> 100 µM	> 100 µM	> 200 µM	3%
COc1ccc(S(=O)(=O)Nc2ccc(Oc3ccc(NC(=O)Cc4ccccc4)cc3)cc2)cc1 [Compound 39]	1.56 µM	> 100 µM	> 100 µM	45%
